Experimental data as given in article PMC9661718, “Identification of Inhibitors of the Schistosoma mansoni VKR2 Kinase Domain” (ACS Medicinal Chemistry Letters, 2022).
Entries after “also recorded” stand apart in the source; their conditions may differ.

Columns and labels:
adult S. mansoni worms = assay: Ex vivo adult S. mansoni phenotypic screen (descriptors and severity scores); design: species or system Schistosoma mansoni; key to Descriptors 2 h / Descriptors 5 h / Descriptors 24 h: degenerating (deg); uncoordinated (unc); slow (S); on sides, inability of worms to adhere to well floor with either the oral or ventral sucker; teg bleb, damage to the surface tegument; conditions: 10 μM compound; for Descriptors 2 h / Descriptors 5 h / Descriptors 24 h: ex vivo adult worms
Experimental: The 12 compounds identified from the SPR screen were tested against ex vivo adult S. mansoni worms to investigate whether they induce phenotypic alterations in the parasite. Compound effects at 10 μM were assessed at 2, 5, and 24 h, and activity was partially quantified using an observation-based severity scoring system that is designed to holistically assess the many different responses to chemical insult of which the schistosome is capable.[26],[27] For those compounds eliciting phenotypic changes, WormAssay was also employed as an additional readout to measure average worm motility per well.[28],[29] Four compounds, GW696155, GSK986310, GSK1520489, and SB-710363, produced a variety of effects in the worm (Figure 1; Table 2; Table S1). GW696155 generated the strongest responses. […] Although, SPR identified 12 compounds against the SmVKR2KD (Table 1), the absence of phenotypic activity for eight of these compounds (Table S2) could be due to their poor uptake by the parasite. It is also possible that the phenotypic changes noted for the four active compounds are only partially related or unrelated to engagement of the SmVKR2 target. […]
Preparation of S. mansoni
The acquisition, preparation and in vitro maintenance of S. mansoni have been described 11, 12.
We use a Naval Medical Research Institute (NMRI) isolate of S. mansoni that is cycled between Biomphalaria glabrata snails and male Golden Syrian hamsters (infected at 4-6 weeks of age) as intermediate and definitive hosts, respectively. Briefly, adult worms were harvested from hamsters 42 days post-infection in RPMI or DMEM, and washed five times prior to maintenance overnight at 37 °C and 5% CO2 in Basch medium 13 containing 4% heat-inactivated FBS, 100 μg/ml streptomycin and 100 U/ml penicillin. activity against adult Ex vivoS. mansoni
Ex vivo screens with adults employed 24-well flat-bottomed plates and approximately five males, two to three of which were paired to females. Screens incorporated a final compound concentration of 10 μM in DMSO (0.5% final concentration). The complex and often dynamic phenotypic responses that the schistosome parasite is capable of were observed using a Zeiss Axiovert A1 inverted microscope at 2, 5 and 24 h. Observations were classified using a constrained nomenclature that involves simple “descriptors” to convey changes in shape, motility and appearance, and the inability of the male worm to adhere to the bottom of the well, compared to DMSO controls 11, 14, 15. Each descriptor was given a value of 1 and these were added up to yield a “severity score” with a maximum of 4. Evidence of degeneracy or death was awarded a value of 4 as was damage to the tegument (surface), on the understanding this would compromise survival in vivo. Scores were averaged across 3-5 individual experiments.

adult S. mansoni = assay: WormAssay average worm motility per well; design: species or system Schistosoma mansoni; conditions: 10 μM compound, 2, 5 and 24 h
Experimental: The 12 compounds identified from the SPR screen were tested against ex vivo adult S. mansoni worms to investigate whether they induce phenotypic alterations in the parasite. Compound effects at 10 μM were assessed at 2, 5, and 24 h, and activity was partially quantified using an observation-based severity scoring system that is designed to holistically assess the many different responses to chemical insult of which the schistosome is capable.[26],[27] For those compounds eliciting phenotypic changes, WormAssay was also employed as an additional readout to measure average worm motility per well.[28],[29] Four compounds, GW696155, GSK986310, GSK1520489, and SB-710363, produced a variety of effects in the worm (Figure 1; Table 2; Table S1). GW696155 generated the strongest responses. […] Although, SPR identified 12 compounds against the SmVKR2KD (Table 1), the absence of phenotypic activity for eight of these compounds (Table S2) could be due to their poor uptake by the parasite. It is also possible that the phenotypic changes noted for the four active compounds are only partially related or unrelated to engagement of the SmVKR2 target.
Figure 1 Changes in the average motility of adult S. mansoni as a function of time, as measured by WormAssay. Significance was determined by Student’s t-test (two-tailed): *P < 0.05, **p < 0.005, ***P < 0.0005. Data were derived from three to five biological assays with 10 μM compound. […]
The assay was performed according to the manufacturer’s recommendations without any modifications. The optimal concentration of the SmVKR2KD in the assay was established as µM. The autophosphorylation activity was measured at an ATP concentration of […] to aid the identification of competitive inhibitors as recommended by the ADP-Glo Kinase Assay (Promega) protocol. The autophosphorylation activity of the SmVKR2KD was measured in the presence and absence of inhibitors at various concentrations. […] The luminescence was measured using a CLARIOstar plate reader. […]

schistosomes = tested on: schistosomes; design: method as in PMID 23696913; conditions: cited from earlier work
SmVKR2 = tested on: SmVKR2; design: method as in PMID 23696913; conditions: cited from earlier work
SmVKR1 = tested on: SmVKR1; design: method as in PMID 23696913; conditions: cited from earlier work

Row | Compound | Descriptors 2 h (adult S. mansoni worms) | Severity scores 2 h (adult S. mansoni worms; maximum score 4) | Descriptors 5 h (adult S. mansoni worms) | Severity scores 5 h (adult S. mansoni worms; maximum score 4) | Descriptors 24 h (adult S. mansoni worms) | Severity scores 24 h (adult S. mansoni worms; maximum score 4) | severity score (adult S. mansoni worms; time not given, maximum score 4) | average worm motility (WormAssay) (adult S. mansoni) | phenotypic activity assessed visually (adult S. mansoni worms; time not stated) | apoptosis and egg production in schistosomes (schistosomes) | inhibition of SmVKR2 (SmVKR2) | inhibition of SmVKR1 (SmVKR1)
1 | NCCNS(=O)(=O)c1ccc(-c2ccnc3[nH]ccc23)cc1 [GSK977617] | none | 0 | none | 0 | none | 0 |  |  |  |  |  | 
2 | CN(C)CCNS(=O)(=O)c1ccc(-c2ccnc3[nH]ccc23)cc1 [GSK977620] | none | 0 | none | 0 | none | 0 |  |  |  |  |  | 
3 | Cc1cccc(Nc2nc(N[C@H]3CCCC[C@H]3N)ncc2C(N)=O)c1 [GSK986310] | S | 1 | S | 1 | S | 1 | 1 | milder effect in decreasing worm movement |  |  |  | 
4 | CS(=O)(=O)Nc1ccc(-c2ccnc3[nH]ccc23)cc1 [GSK993273] | none | 0 | none | 0 | none | 0 |  |  |  |  |  | 
5 | Cc1cccc(Nc2nc(NCCN)ncc2C(N)=O)c1 [GSK1292139] | none | 0 | none | 0 | none | 0 |  |  |  |  |  | 
6 | CNC(=O)c1ccccc1Nc1nc(Nc2cccc(CS(C)(=O)=O)c2)ncc1C [GSK1520489] | unc | 1 | unc | 1 | unc | 1 |  | without a long-term decrease in average motility | mild uncoordinated motility |  |  | 
7 | Cc1n[nH]c2cc(Nc3ccnc(Nc4cccc(CN5CCOCC5)c4)n3)ccc12 [GW682569] | none | 0 | none | 0 | none | 0 |  |  |  |  |  | 
8 | CC(C)Oc1ccc2c(-c3ccnc(Nc4ccc(N5CCN(C)CC5)cc4)n3)cnn2n1 [GW696155] | decreased motility and lost their ability to adhere to the floor of the well; also recorded: S, on sides | 2 | Dark, S, on sides | 3 | worm degeneration and damage to the surface tegument in the form of blebs or bubbles; also recorded: Deg, S, on sides, teg bleb | 4 |  | decrease in average worm motility over time |  |  |  | 
9 | NC(=O)Nc1sc(-c2ccc(F)cc2)cc1C(N)=O [GW789449] | none | 0 | none | 0 | none | 0 |  |  |  |  |  | 
10 | Nc1n[nH]c2cnc(-c3ccccc3)cc12 [SB-642124] | none | 0 | none | 0 | none | 0 |  |  |  |  |  | 
11 | Nc1nc(N)c2[nH]c(-c3ccccc3)nc2n1 [SKF-12778] | none | 0 | none | 0 | none | 0 |  |  |  |  |  | 
12 | CC(C)(C)c1cc(C=C(C#N)C#N)cc(Br)c1O [tyrphostin AG1024] |  |  |  |  |  |  |  |  |  | concentration-dependent apoptosis and cessation of egg production | inhibited | inhibited
